Where two headings read alike, the source gives them in different places.
Tests used:
[1] = molecular target: T1, Recombinant IDO1 (Homo sapiens, UniProt P14902); assay: IDO1 enzymatic assay; assay type: biochemical
T1 construct: His tag (N); made in house; host or cells: E. coli
How it was run: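 N-terminally His-tagged enzyme from E. coli (50 nM) was incubated with compound, 1.3 mM D-tryptophan, 5 mM ascorbate, 6.25 μM methylene blue and 0.4 mg/mL catalase in 50 mM potassium phosphate pH 7.5, 0.1% BSA for 1.5 h at 24° C. N′-formylkynurenine formation was followed at 321 nm for 1 h; IC50 from rate slopes.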

[2] = molecular target: T2, Recombinant TDO (Homo sapiens, UniProt P48775); assay: TDO enzymatic assay; assay type: biochemical
T2 construct: His tag (C); made in house; host or cells: E. coli
T2 sequence (P48775 whole entry): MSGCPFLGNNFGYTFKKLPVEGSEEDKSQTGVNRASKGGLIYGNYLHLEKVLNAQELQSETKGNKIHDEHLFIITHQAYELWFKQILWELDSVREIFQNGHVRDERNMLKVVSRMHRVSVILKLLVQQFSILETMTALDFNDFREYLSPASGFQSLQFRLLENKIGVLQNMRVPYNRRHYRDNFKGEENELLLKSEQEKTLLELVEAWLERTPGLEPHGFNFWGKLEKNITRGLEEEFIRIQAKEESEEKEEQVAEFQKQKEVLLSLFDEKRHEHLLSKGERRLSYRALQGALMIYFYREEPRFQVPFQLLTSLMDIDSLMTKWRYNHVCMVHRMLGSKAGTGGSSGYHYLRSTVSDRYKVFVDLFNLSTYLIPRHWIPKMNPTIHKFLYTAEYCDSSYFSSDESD
Procedure: Recombinant TDO was overexpressed and purified from E. coli cells with a C-terminal His tag. TDO enzymatic assay was performed using the same methodology as IDO1 enzymatic assay except that 100 nM TDO and 0.5 mM L-tryptophan (Km concentration) were used in the TDO assay.

[3] = molecular target: T3, cellular IDO1 in HeLa cells (Homo sapiens, UniProt P14902); assay: HeLa cell-based IDO1 Kyn (kynurenine) production assay; conditions: IFN-γ 100 ng/mL, 48 hours
T3 construct: endogenous in cells; host or cells: HeLa cells (American Type Tissue Culture Collection), induced with human recombinant IFN-γ
T3 sequence (P14902 whole entry): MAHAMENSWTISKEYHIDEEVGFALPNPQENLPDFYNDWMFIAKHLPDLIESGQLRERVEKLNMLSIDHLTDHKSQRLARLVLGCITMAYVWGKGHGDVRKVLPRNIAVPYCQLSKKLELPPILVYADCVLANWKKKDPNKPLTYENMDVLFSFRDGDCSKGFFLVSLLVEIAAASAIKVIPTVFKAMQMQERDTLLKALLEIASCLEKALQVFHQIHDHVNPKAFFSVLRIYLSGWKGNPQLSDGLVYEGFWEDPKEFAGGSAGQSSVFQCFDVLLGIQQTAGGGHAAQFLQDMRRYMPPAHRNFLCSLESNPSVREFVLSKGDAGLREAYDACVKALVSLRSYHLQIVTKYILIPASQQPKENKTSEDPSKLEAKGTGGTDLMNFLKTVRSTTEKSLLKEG
How it was run: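 IFN-γ-induced HeLa cells (100 ng/mL) in phenol red-free DMEM with 0.4 mM L-Trp, compounds added together with IFN-γ, 48 h at 37 °C. Supernatant Kyn read at 480 nm after TCA precipitation and 4-(dimethylamino)benzaldehyde reaction. IC50 from four-parameter logistic fit.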

[4] = Table 1, 5-substituted imidazo[1,5-a]pyridines, 50 nM IDO1, 1.3 mM D-tryptophan, read-out: Enzyme IC50 (nM) IDO1
[5] = Table 1, 5-substituted imidazo[1,5-a]pyridines, 100 nM TDO, 0.5 mM L-tryptophan, read-out: Enzyme IC50 (nM) TDO
[6] = Table 1, 5-substituted imidazo[1,5-a]pyridines
[7] = Table 2, 8-substituted imidazo[1,5-a]pyridines, 50 nM IDO1, 1.3 mM D-tryptophan, read-out: Enzyme IC50 (nM) IDO1
[8] = Table 2, 8-substituted imidazo[1,5-a]pyridines, 100 nM TDO, 0.5 mM L-tryptophan, read-out: Enzyme IC50 (nM) TDO
[9] = Table 2, 8-substituted imidazo[1,5-a]pyridines

T1 sequence (P14902 whole entry): as above

Compound | IC50 [1, 4] | IC50 [2, 5] | EC50 [3, 6] | IC50 [1, 7] | IC50 [2, 8] | EC50 [3, 9] | IC50 ([1]; selectivity examples, read-out: enzymatic IC50 value to IDO1) | IC50 ([2]; selectivity examples, read-out: enzymatic IC50 value to TDO)
OC(CC1CCCCC1)c1c(Cl)ccc2cncn12 (single isomer, unassigned) [Example A117a] | 11 nM | 4100 nM | 0.092 µM |  |  |  |  | 
O=C(NC1CCCC(C(O)c2cc(Cl)cc3cncn23)C1)c1cccc(Cl)c1 (stereo not drawn) [Example A105, 3-chloro-N-(3-((7-chloroimidazo[1,5-a]pyridin-5-yl)(hydroxy)methyl)cyclohexyl)benzamide] | 127 nM | 1600 nM | 1.69 µM |  |  |  |  | 
OC(c1c(C2CC2)ccc2cncn12)C1CCCCC1 (single isomer, unassigned) [Example A129a] | 14 nM | 1700 nM | 0.038 µM |  |  |  |  | 
OC(c1c(Cl)ccc2cncn12)C1CCCCC1 (single isomer, unassigned) [Example A116b] | 4800 nM | 67000 nM | > 10 µM |  |  |  |  | 
OC(c1c(Br)ccc2cncn12)C1CCCCC1 (single isomer, unassigned) [Example A118b] | 1600 nM | 53000 nM | > 10 µM |  |  |  |  | 
OC(c1cccn2cncc12)C1CCCCC1 (stereo not drawn) [Example B001, Cyclohexyl(imidazo[1,5-a]pyridin-8-yl)methanol] |  |  |  | 1000 nM | 630 nM | > 10 µM |  | 
CC(C)c1ccc2cncn2c1C(O)C1CCCCC1 (stereo not drawn) [Example A135, cyclohexyl(6-isopropylimidazo[1,5-a]pyridin-5-yl)methanol] | 39 nM | 2700 nM | 0.054 µM |  |  |  |  | 
OC(c1cccc2cncn12)C1CCCCC1 (stereo not drawn) [Example A001, Cyclohexyl(imidazo[1,5-a]pyridin-5-yl)methanol] | 150 nM | 260 nM | > 10 µM |  |  |  |  | 
OC(CC1CCCCC1)c1c(Br)ccc2cncn12 (single isomer, unassigned) [Example A119b] | 1300 nM | 38000 nM | 9.43 µM |  |  |  |  | 
OC(c1c(Cl)c(Cl)cc2cncn12)C1CCCCC1 (stereo not drawn) [Example A143, cyclohexyl(6,7-dichloroimidazo[1,5-a]pyridin-5-yl)methanol] | 15 nM | 270 nM | 1.11 µM |  |  |  |  | 
OC(c1cc(I)cc2cncn12)C1CCCCC1 (stereo not drawn) [Example A107, cyclohexyl(7-iodoimidazo[1,5-a]pyridin-5-yl)methanol 2,2,2-trifluoroacetate] | 26 nM | 110 nM | 0.968 µM |  |  |  |  | 
O[C@@H](c1c(C2CC2)ccn2cncc12)C1CCCCC1 (single isomer, unassigned) [Example B107b] |  |  |  | 21000 nM | 11000 nM | > 10 µM |  | 
Cc1ccn2cncc2c1C(O)C1CCCCC1 (stereo not drawn) [Example B102, cyclohexyl(7-methylimidazo[1,5-a]pyridin-8-yl)methanol] |  |  |  | 23 nM | 360 nM | 1.56 µM |  | 
OC(c1c(C2CC2)ccc2cncn12)C1CCCC1 (stereo not drawn) [Example A138, cyclopentyl(6-cyclopropylimidazo[1,5-a]pyridin-5-yl)methanol] | 25 nM | 6600 nM | 0.418 µM |  |  |  |  | 
C#Cc1ccc2cncn2c1C(O)C1CCCCC1 (stereo not drawn) [Example A123, cyclohexyl(6-ethynylimidazo[1,5-a]pyridin-5-yl)methanol] | 19 nM | 7900 nM | 0.556 µM |  |  |  |  | 
Cc1cc(C(O)C2CCCCC2)c2cncn2c1 (stereo not drawn) [Example B011, Cyclohexyl (6-methylimidazo[1,5-a]pyridin-8-yl)methanol] |  |  |  | 170 nM | 190 nM | > 10 µM |  | 
OC(c1cc(C(F)(F)F)cc2cncn12)C1CCCC1 (stereo not drawn) [Example A110, Cyclopentyl(7-(trifluoromethyl)imidazo[1,5-a]pyridin-5-yl)methanol] | 66 nM | 120 nM | 2.09 µM |  |  |  |  | 
OC(c1cccc2cncn12)C1CCCCC1 (single isomer, unassigned) [Example A001a] | 41 nM | 610 nM | > 10 µM |  |  |  |  | 

Compound | IC50 [1, 4] | IC50 [2, 5] | EC50 [3, 6] | IC50 [1, 7] | IC50 [2, 8] | EC50 [3, 9] | IC50 ([1]; selectivity examples, read-out: enzymatic IC50 value to IDO1) | IC50 ([2]; selectivity examples, read-out: enzymatic IC50 value to TDO)
OC(CC1CCCCC1)c1c(Cl)c(F)cc2cncn12 (stereo not drawn) [Example A152, 1-(6-chloro-7-fluoroimidazo[1,5-a]pyridin-5-yl)-2-cyclohexylethan-1-ol] | 33 nM | 7400 nM | 0.202 µM |  |  |  |  | 
Cc1ccn2cncc2c1C(O)CC1CCCCC1 (stereo not drawn) [Example B101, 2-cyclohexyl-1-(7-methylimidazo[1,5-a]pyridin-8-yl)ethan-1-ol] |  |  |  | 14 nM | 1000 nM | 0.439 µM |  | 
OC(CC1CCCCC1)c1c(Cl)c(Cl)cc2cncn12 (stereo not drawn) [Example A144, 2-cyclohexyl-1-(6,7-dichloroimidazo[1,5-a]pyridin-5-yl)ethan-1-ol] | 32 nM | 1500 nM | 1.24 µM |  |  |  |  | 
CC(C)c1ccn2cncc2c1C(O)CC1CCCCC1 (stereo not drawn) [Example B108, 2-Cyclohexyl-1-(7-isopropylimidazo[1,5-a]pyridin-8-yl)ethan-1-ol] |  |  |  | 59 nM | 560 nM | 0.389 µM |  | 
OC(c1c(I)ccc2cncn12)C1CCCCC1 (single isomer, unassigned) [Example A125b] | 12000 nM | 46000 nM | > 10 µM |  |  |  |  | 
OC(CC1CCCCC1)c1cccn2cncc12 (stereo not drawn) [Example B006, 2-Cyclohexyl-1-(imidazo[1,5-a]pyridin-8-yl)ethan-1-ol] |  |  |  | 330 nM | 3300 nM | > 10 µM |  | 
OC(c1c(Cl)ccn2cncc12)C1CCCCC1 (stereo not drawn) [Example B104, (7-chloroimidazo[1,5-a]pyridin-8-yl)(cyclohexyl)methanol] |  |  |  | 38 nM | 940 nM | 2.93 µM |  | 
OC(CC1CCCCC1)c1c(C(F)(F)F)ccc2cncn12 (single isomer, unassigned) [Example A127a] | 17 nM | 15000 nM | 0.169 µM |  |  |  |  | 
COc1ccc2cncn2c1C(O)C1CCCCC1 (stereo not drawn) [Example A131, cyclohexyl(6-methoxyimidazo[1,5-a]pyridin-5-yl)methanol] | 28 nM | 4100 nM | 0.939 µM |  |  |  |  | 
OC(CC1CCCCC1)c1cc(Cl)cc2cncn12 (single isomer, unassigned) [Example A102a] | 15 nM | 73 nM | 0.346 µM |  |  |  |  | 
OC(CC1CCCCC1)c1c(Cl)ccn2cncc12 (stereo not drawn) [Example B105, 1-(7-chloroimidazo[1,5-a]pyridin-8-yl)-2-cyclohexylethan-1-ol] |  |  |  |  |  | 0.876 µM | 33 nM | 4900 nM
OC1CCCCC1C(O)c1c(C2CC2)ccc2cncn12 (stereo not drawn) [Example A141, 2-((6-cyclopropylimidazo[1,5-a]pyridin-5-yl)(hydroxy)methyl)cyclohexan-1-ol] | 51 nM | 3900 nM | 3.15 µM |  |  |  |  | 
OC(CC1CCCCC1)c1cc(C(F)(F)F)cc2cncn12 (single isomer, unassigned) [Example A114a] | 890 nM | 2600 nM | > 10 µM |  |  |  |  | 
OC(c1c(F)c(Cl)cc2cncn12)C1CCCCC1 (stereo not drawn) [Example A156, (7-chloro-6-fluoroimidazo[1,5-a]pyridin-5-yl)(cyclohexyl)methanol] | 48 nM | 190 nM | 1.65 µM |  |  |  |  | 
OC(CC1CCCCC1)c1c(I)ccc2cncn12 (single isomer, unassigned) [Example A124a] | 9 nM | 8800 nM | 0.092 µM |  |  |  |  | 
OC(CC1CCCCC1)c1c(I)ccc2cncn12 (stereo not drawn) [Example A124, 2-cyclohexyl-1-(6-iodoimidazo[1,5-a]pyridin-5-yl)ethan-1-ol] | 19 nM | 8700 nM | 0.275 µM |  |  |  |  | 
OC(CCC1CCCCC1)c1cc(Cl)cc2cncn12 (stereo not drawn) [Example A113, 1-(7-chloroimidazo[1,5-a]pyridin-5-yl)-3-cyclohexylpropan-1-ol] | 26 nM | 1100 nM | 3.22 µM |  |  |  |  | 

— US10280163B2 (BeiGene, Ltd., priority 2015, dated 2019)
